Test results from patent US20060069132A1, “Azolecarboxamide herbicides” (priority 2004, published 2006).

Experiments:
[1] = test system: bermudagrass; test: Test C pre-/postemergence herbicide test; assay type: in vivo, Cynodon dactylon; conditions: for Plant response rating, Bermudagrass: preemergence; for Bermudagrass plant response rating: Preemergence, 500 g ai/ha
Text: (§1) Seeds of plant species selected from bermudagrass (Cynodon dactylon (L.) Pers.), Surinam grass (Urochloa decumbens (Staph) R. D. Webster, previously named Brachiaria decumbens Stapf), cocklebur (Xanthium strumarium L.), corn (Zea mays L.), large crabgrass (Digitaria sanguinalis (L.) Scop.), woolly cupgrass (Eriochloa villosa (Thunb.) Kunth), giant foxtail (Setaria faberi Herrm.), goosegrass (Eleusine indica (L.) Gaertn.), johnsongrass (Sorghum halepense (L.) Pers.), kochia (Kochia scoparia (L.) Schrad.), lambsquarters (Chenopodium album L.), morningglory (Ipomoea coccinea L.), eastern black nightshade (Solanum ptycanthum Dunal), yellow nutsedge (Cyperus esculentus L.), pigweed (Amaranthus retroflexus L.), common ragweed (Ambrosia elatior L.), soybean (Glycine max (L.) Merr.), common (oilseed) sunflower (Helianthus annuus L.) and velvetleaf (Abutilon theophrasti Medik.) were planted and treated preemergence with test chemicals formulated in a non-phytotoxic solvent mixture which included a surfactant.
(§2) At the same time, plants selected from these crop and weed species and also winter barley (Hordeum vulgare L.), blackgrass (Alopecurus myosuroides Huds.), canarygrass (Phalaris minor Retz.), chickweed (Stellaria media (L.) Vill.), downy bromegrass (Bromus tectorum L.), green foxtail (Setaria viridis (L.) Beauv.), Italian ryegrass (Lolium multiflorum Lam.), wheat (Triticum aestivum L.), wild oat (Avenafatua L.) and windgrass (Apera spica-venti (L.) Beauv.) were treated with postemergence applications of some of the test chemicals formulated in the same manner. Plants ranged in height from 2 to 18 cm (1- to 4-leaf stage) for postemergence treatments. Plant species in the flooded paddy test consisted of rice (Oryza sativa), smallflower umbrella sedge (Cyperus difformis L.), ducksalad (Heteranthera limosa (Sw.) Willd.) and barnyardgrass (Echinochloa crus-galli (L.) Beauv.) grown to the 2-leaf stage for testing. Treated plants and controls were maintained in a greenhouse for 12 to 14 days, after which time all species were compared to controls and visually evaluated. Plant response ratings, summarized in Table C, are based on a scale of 0 to 100 where 0 is no effect and 100 is complete control. A dash (-) response means no test result.

[2] = test system: large crabgrass; test: Test C pre-/postemergence herbicide test; assay type: in vivo, Digitaria sanguinalis; conditions: preemergence
Text: as §1, §2

[3] = test system: giant foxtail; test: Test C pre-/postemergence herbicide test; assay type: in vivo, Setaria faberi; conditions: preemergence
Text: as §1, §2

[4] = test system: kochia; test: Test C pre-/postemergence herbicide test; assay type: in vivo, Kochia scoparia; conditions: preemergence
Text: as §1, §2

[5] = test system: morningglory; test: Test C pre-/postemergence herbicide test; assay type: in vivo, Ipomoea coccinea; parameters: key to Plant response rating, Morningglory: 0 = no effect, 100 = complete control; conditions: preemergence
Text: as §1, §2

[6] = test system: yellow nutsedge; test: Test C pre-/postemergence herbicide test; assay type: in vivo, Cyperus esculentus; conditions: preemergence
Text: as §1, §2

[7] = test system: pigweed; test: Test C pre-/postemergence herbicide test; assay type: in vivo, Amaranthus retroflexus; conditions: preemergence
Text: as §1, §2

[8] = test system: common ragweed; test: Test C pre-/postemergence herbicide test; assay type: in vivo, Ambrosia elatior; parameters: key to Plant response rating, Ragweed: 0 = no effect, 100 = complete control; conditions: preemergence
Text: as §1, §2

[9] = test system: soybean; test: Test C pre-/postemergence herbicide test; assay type: in vivo, Glycine max; conditions: preemergence
Text: as §1, §2

[10] = test system: giant foxtail; test: Test A pre-/postemergence herbicide test; assay type: in vivo, Setaria faberi
Procedure, shortened: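 Visual injury rating on a 0–100 scale (0 no effect, 100 complete control) versus untreated controls, about ten days after treatment in greenhouse. Pre: directed soil spray onto seeded sandy loam. Post: spray to runoff on plants 2–10 cm tall at one- to two-leaf stage.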

[11] = 62 g ai/ha, scale 0 to 100, 0 no effect, 100 complete control
[12] = 125 g ai/ha, scale 0 (no effect) to 100 (complete control), visual, 12 to 14 days
[13] = scale 0 to 100, 0 no effect, 100 complete control
[14] = 500 g ai/ha, scale 0 to 100 (0 no effect, 100 complete control), visual, 12 to 14 days
[15] = Postemergence, 500 g ai/ha, 0 to 100 scale, 0 no effect, 100 complete control
[16] = Postemergence, 2000 g ai/ha, 0 to 100 scale, 0 no effect, 100 complete control
[17] = Preemergence, 500 g ai/ha, visual rating, 0 to 100 scale (0 no effect, 100 complete control)
[18] = Preemergence, 2000 g ai/ha, visual rating, 0 to 100 scale (0 no effect, 100 complete control)
[19] = preemergence, 500 g ai/ha, visual injury, 0 to 100 scale (0 no effect, 100 complete control)

Structure (SMILES): CCN1N=C(C(C)(C)C)CC1C(=O)Nc1cc(C(=O)N2CC=CC2)ccc1F (racemic) [Compound 310]
- Plant response rating, Bermudagrass [1, 11]: 50
- Plant response rating, Bermudagrass [1, 12]: 85
- Plant response rating, Bermudagrass ([1]; 250 g ai/ha, scale 0-100): 100
- Bermudagrass plant response rating [1, 13]: 100
- Plant response rating, Crabgrass, Large ([2]; 62 g ai/ha, scale 0 to 100): 30
- Plant response rating, Crabgrass, Large [2, 12]: 70
- Plant response rating, Crabgrass, Large ([2]; 250 g ai/ha, scale 0-100): 100
- Plant response rating, Crabgrass, Large [2, 14]: 100
- Plant response rating, Foxtail, Giant ([3]; 62 g ai/ha, scale 0 to 100): 5
- Plant response rating, Foxtail, Giant [3, 12]: 40
- Plant response rating, Foxtail, Giant ([3]; 250 g ai/ha, scale 0-100): 85
- Plant response rating, Foxtail, Giant [3, 14]: 100
- Plant response rating, Kochia ([4]; 62 g ai/ha, scale 0 to 100): 95
- Plant response rating, Kochia [4, 12]: 100
- Plant response rating, Kochia ([4]; 250 g ai/ha, scale 0-100): 100
- Plant response rating, Kochia [4, 14]: 100
- Plant response rating, Morningglory ([5]; 62 g ai/ha, scale 0 to 100): 0
- Plant response rating, Morningglory [5, 12]: 5
- Plant response rating, Morningglory ([5]; 250 g ai/ha, scale 0-100): 5
- Plant response rating, Morningglory [5, 14]: 10
- Plant response rating, Nutsedge, Yellow ([6]; 62 g ai/ha, scale 0 to 100): 0
- Plant response rating, Nutsedge, Yellow [6, 12]: 0
- Plant response rating, Nutsedge, Yellow ([6]; 250 g ai/ha, scale 0-100): 0
- Plant response rating, Nutsedge, Yellow [6, 14]: 15
- Plant response rating, Pigweed ([7]; 62 g ai/ha, scale 0 to 100): 100
- Plant response rating, Pigweed [7, 12]: 100
- Plant response rating, Pigweed ([7]; 250 g ai/ha, scale 0-100): 100
- Plant response rating, Pigweed [7, 14]: 100
- Plant response rating, Ragweed ([8]; 62 g ai/ha, scale 0 to 100): 0
- Plant response rating, Ragweed ([8]; 250 g ai/ha, scale 0-100): 50
- Plant response rating, Ragweed [8, 14]: 80
- Plant response rating, Soybean ([9]; 62 g ai/ha, scale 0 to 100): 0
- Plant response rating, Soybean ([9]; 250 g ai/ha, scale 0-100): 30

Structure (SMILES): CCn1nc(C(C)(C)C)cc1C(=O)Nc1cccc(C(=O)NCCF)c1 [Compound 45]
- Plant response rating, Foxtail, Giant [10, 15]: 90
- Plant response rating, Foxtail, Giant [10, 16]: 95
- Foxtail, Giant plant response rating [10, 17]: 75
- Foxtail, Giant plant response rating ([10]; Preemergence, 2000 g ai/ha, 0 to 100 scale, 0 no effect, 100 complete control): 100

Structure (SMILES): CCn1nc(C(C)(C)C)cc1C(=O)Nc1cccc(C(=O)NC(C)C)c1 [Compound 51]
- Foxtail, Giant plant response rating ([10]; Postemergence, 125 g ai/ha, 0 to 100 scale, 0 no effect, 100 complete control): 20
- Plant response rating, Foxtail, Giant [10, 15]: 40
- Foxtail, Giant plant response rating [10, 17]: 100
- Foxtail, Giant plant response rating ([10]; preemergence, 125 g ai/ha, visual injury, 0 to 100 scale (0 no effect, 100 complete control)): 70

Structure (SMILES): CCn1nc(C(C)(C)C)cc1C(=O)Nc1cccc(C(C)=O)c1 [Compound 122]
- Foxtail, Giant plant response rating [10, 15]: 80
- Plant response rating, Foxtail, Giant [10, 16]: 80
- Foxtail, Giant plant response rating [10, 17]: 65
- Foxtail, Giant plant response rating [10, 18]: 85

Structure (SMILES): CCOc1cccc(NC(=O)c2cc(C(C)(C)C)nn2CC)c1 [Compound 136]
- Foxtail, Giant plant response rating [10, 15]: 25
- Plant response rating, Foxtail, Giant [10, 16]: 50
- Foxtail, Giant plant response rating [10, 17]: 60
- Foxtail, Giant plant response rating [10, 18]: 70

Structure (SMILES): CCn1nc(C(C)(C)C)cc1C(=O)Nc1cccc(OCCCF)c1 [Compound 138]
- Foxtail, Giant plant response rating [10, 15]: 20
- Plant response rating, Foxtail, Giant [10, 16]: 35
- Foxtail, Giant plant response rating [10, 17]: 30
- Foxtail, Giant plant response rating [10, 18]: 90

Structure (SMILES): CCc1nc(C(C)(C)C)sc1C(=O)Nc1cccc(C(=O)NCCF)c1 [Compound 209]
- Foxtail, Giant plant response rating [10, 15]: 15
- Plant response rating, Foxtail, Giant [10, 16]: 25
- Foxtail, Giant plant response rating [10, 18]: 90
- Foxtail, Giant plant response rating [10, 19]: 50

Structure (SMILES): CCc1nc(C(C)(C)C)sc1C(=O)Nc1cccc(C(=O)NC(C)(C)C)n1 [Compound 216]
- Foxtail, Giant plant response rating [10, 15]: 20
- Plant response rating, Foxtail, Giant [10, 16]: 20
- Foxtail, Giant plant response rating [10, 18]: 70
- Foxtail, Giant plant response rating [10, 19]: 25

Structure (SMILES): CCn1nc(C(C)(C)C)cc1C(=O)Nc1cc(C(=O)N(C)OC)ccc1F [Compound 244]
- Plant response rating, Bermudagrass [1, 11]: 95
- Plant response rating, Bermudagrass [1, 12]: 100
- Plant response rating, Bermudagrass ([1]; 250 g ai/ha, scale 0-100): 100
- Bermudagrass plant response rating [1, 13]: 100
- Plant response rating, Crabgrass, Large ([2]; 62 g ai/ha, scale 0 to 100): 100
- Plant response rating, Crabgrass, Large [2, 12]: 100
- Plant response rating, Crabgrass, Large ([2]; 250 g ai/ha, scale 0-100): 100
- Plant response rating, Crabgrass, Large [2, 14]: 100
- Plant response rating, Foxtail, Giant ([3]; 62 g ai/ha, scale 0 to 100): 80
- Plant response rating, Foxtail, Giant [3, 12]: 95
- Plant response rating, Foxtail, Giant ([3]; 250 g ai/ha, scale 0-100): 95
- Plant response rating, Foxtail, Giant [3, 14]: 100
- Plant response rating, Morningglory ([5]; 62 g ai/ha, scale 0 to 100): 0
- Plant response rating, Morningglory [5, 12]: 15
- Plant response rating, Morningglory ([5]; 250 g ai/ha, scale 0-100): 20
- Plant response rating, Morningglory [5, 14]: 55
- Plant response rating, Nutsedge, Yellow ([6]; 62 g ai/ha, scale 0 to 100): 0
- Plant response rating, Nutsedge, Yellow [6, 12]: 0
- Plant response rating, Nutsedge, Yellow ([6]; 250 g ai/ha, scale 0-100): 0
- Plant response rating, Nutsedge, Yellow [6, 14]: 0
- Plant response rating, Pigweed ([7]; 62 g ai/ha, scale 0 to 100): 100
- Plant response rating, Pigweed [7, 12]: 100
- Plant response rating, Pigweed ([7]; 250 g ai/ha, scale 0-100): 100
- Plant response rating, Pigweed [7, 14]: 100
- Plant response rating, Ragweed ([8]; 62 g ai/ha, scale 0 to 100): 95
- Plant response rating, Ragweed ([8]; 250 g ai/ha, scale 0-100): 100
- Plant response rating, Ragweed [8, 14]: 100
- Plant response rating, Soybean ([9]; 62 g ai/ha, scale 0 to 100): 0
- Plant response rating, Soybean ([9]; 250 g ai/ha, scale 0-100): 10
- Plant response rating, Soybean [9, 14]: 15

Structure (SMILES): CCNC(=O)c1ccc(F)c(NC(=O)c2cc(C(C)(C)C)nn2CC)n1 [Compound 278]
- Foxtail, Giant plant response rating [10, 15]: 5
- Plant response rating, Foxtail, Giant [10, 16]: 15
- Foxtail, Giant plant response rating [10, 18]: 85
- Foxtail, Giant plant response rating [10, 19]: 60

Structure (SMILES): CCn1nc(C(C)(C)C)cc1C(=O)Nc1nc(C(=O)N2CC=CC2)ccc1F [Compound 281]
- Foxtail, Giant plant response rating [10, 15]: 0
- Plant response rating, Foxtail, Giant [10, 16]: 25
- Foxtail, Giant plant response rating [10, 18]: 75
- Foxtail, Giant plant response rating [10, 19]: 60

Structure (SMILES): C#CCNC(=O)c1cc(NC(=O)c2cc(C(C)(C)C)nn2CC)ccn1 [Compound 283]
- Foxtail, Giant plant response rating [10, 15]: 10
- Plant response rating, Foxtail, Giant [10, 16]: 25
- Foxtail, Giant plant response rating [10, 18]: 50
- Foxtail, Giant plant response rating [10, 19]: 10

Structure (SMILES): CCn1nc(C(C)(C)C)cc1C(=O)Nc1cncc(C(=O)N2CC=CC2)n1 [Compound 290]
- Foxtail, Giant plant response rating [10, 15]: 15
- Plant response rating, Foxtail, Giant [10, 16]: 70
- Foxtail, Giant plant response rating [10, 18]: 90
- Foxtail, Giant plant response rating [10, 19]: 50

Structure (SMILES): C#CCNC(=O)c1cccc(NC(=O)c2sc(C(C)(C)C)nc2CC)c1 [Compound 319]
- Foxtail, Giant plant response rating [10, 15]: 0
- Plant response rating, Foxtail, Giant [10, 16]: 40
- Foxtail, Giant plant response rating [10, 18]: 80
- Foxtail, Giant plant response rating [10, 19]: 55

Structure (SMILES): CCN(C(C)=O)C(=O)c1ccc(F)c(NC(=O)c2cc(C(C)(C)C)nn2CC)c1 [Compound 413]
- Foxtail, Giant plant response rating [10, 15]: 10
- Plant response rating, Foxtail, Giant [10, 16]: 35
- Foxtail, Giant plant response rating [10, 18]: 90
- Foxtail, Giant plant response rating [10, 19]: 65
